Test results from patent publication US20230293514A1, “INJECTABLE DEPOT FORMULATION COMPRISING CARIPRAZINE FREE BASE PARTICLES” (Anxo Pharmaceutical Co., Ltd., priority 2022, published 2023).
In brackets after ≈: the same amount, converted by molar mass. Where a name gives a salt, the structure may show the parent alone.

What was measured:
[1] = plasma vs pH 7.6 buffer simulating muscular tissue; cited from earlier work
physchem = conditions: water, thermodynamic from solid

solubility (physchem) [µg/mL] | SMILES | solubilization enhancement in plasma compared to pH 7.6 buffer [1] [fold]
 | Cc1cc2c(s1)Nc1ccccc1N=C2N1CCN(C)CC1.O.O=C(O)c1cc2ccccc2c(Cc2c(O)c(C(=O)O)cc3ccccc23)c1O [olanzapine pamoate] | 18
6 (≈ 14 µM) | CN(C)C(=O)N[C@H]1CC[C@H](CCN2CCN(c3cccc(Cl)c3Cl)CC2)CC1 [cariprazine free base, cariprazine] | 
> 5000 | CN(C)C(=O)NC1CCC(CCN2CCN(c3cccc(Cl)c3Cl)CC2)CC1 (stereo in doubt) [cariprazine hydrochloride salt, trans-N-{4-[2-[4-(2,3-dichlorophenyl)piperazine-1-yl]ethyl]cyclohexyl}-N′, N′-dimethylurea hydrochloride] | 
